From patent publication US20070232577A1, “Synthetic pentacyclic triterpenoids and derivatives of betulinic acid and betulin” (Advanced Life Sciences, Inc., priority 2006, published 2007)
Converted amounts (≈) assume the structure as drawn.

Key:
MCF-7 (breast carcinoma) = experiment: MTS cell viability assay, MCF-7; assay type: cell-based; details: Homo sapiens, MCF7, 72 h
Description: (§1) All treatments were performed in triplicate. […] Cells were incubated at 37° C. for 72 h.

Daoy (glioblastoma) [1] = experiment: MTS cell viability assay, Daoy; details: for IC50: Homo sapiens, Daoy, 72 h, read-out: IC50 Daoy
Description: (§2) Cells were plated, the evening before treatment, for each treatment on 96-well plates (1×10^4 cells/well) in 100 μL volume per well. Drug solutions were prepared by diluting each test compound in DSMO (10 mM) with the appropriate cell growth media for each individual cell line, or in “Universal Media” if several cell lines were to be assayed in parallel, immediately prior to cell treatment. Universal Media consisted of 5 mL sodium pyruvate (100×liquid stock, CellGro), 5 mL glucose (100×, 45% liquid stock, CellGro), 5 mL Penicillin/Streptomycin (100×liquid stock, CellGro), 10 mL sodium bicarbonate (50×liquid stock, CellGro), 25 mL Fetal Calf Serum, 1.25 mL insulin (4 mg/mL, Gibco) and 449 mL RPMI media with 2 mM glutamine for a total volume of 500 mL. Cells were treated by aspirating media from each well and adding 80 μL of each drug solution to the attached cells. All treatments were performed in triplicate. Growth media (80 μL) were added to 3 blank wells (no cells) to measure background from the growth media Growth media alone (no DMSO or test compond) was added to 2 wells containing cells to measure the baseline MTS activity and vehicle (DMSO) control solutions were also included to monitor basal toxicity from DMSO. Cells were incubated at 37° C. for 72 h. MTS reagent (per 96-well plate) were prepared by combining 2 mL of MTS working solution (Cell Titer AQueous Non-Radioactive Cell Proliferation Assay, Promega, cat#G1112), 100 μL of 0.92 mg/mL phenazine methosulfate/Dulbecco's PBS and 2.1 mL growth media. MTS reagent (40 μL) were added to each well and incubated at 37° C. for 1.5 to 4 h. Plates were gently shaken by hand until solution in each well appeared homogenous. Absorbances at 490 nm were measured on a plate reader at multiple time points following the addition of MTS reagent for each plate. Triplicate absorbance (490 nm) measurements were averaged following background (no cell) subtraction for each drug concentration. Percent Cell Viability was calculated for each drug concentration using the following equation: {[Absorbances(drug treated)]/[Absorbances(DMSO treated)]}×100%
(§3) Percent viability (y-axis) was plotted against drug concentration (x-axis) and the resulting graph was used to determine the 50% inhibitory concentration (IC50) for each drug.

SK-MEL-2 (melanoma) [2] = experiment: MTS cell viability assay, SK-MEL-2; details: Homo sapiens, SK-MEL-2, 72 h, read-out: IC50 SK-MEL-2
Description: as §2, §3

LN-229 (glioblastoma) = experiment: MTS cell viability assay, LN-229; assay type: cell-based; details: Homo sapiens, 72 h
Description: as §1

HT-29 (colon carcinoma) = experiment: MTS cell viability assay, HT-29; assay type: cell-based; details: Homo sapiens, 72 h
Description: as §1

[3] = tested on: OVCAR-3 (ovarian carcinoma); experiment: MTS cell viability assay, OVCAR-3; assay type: cell-based; details: Homo sapiens, 72 h
Description: as §1

A-375 (melanoma) = experiment: MTS cell viability assay, A-375; assay type: cell-based; details: Homo sapiens, 72 h
Description: as §1

Daoy = experiment: Caspase activation assay, Daoy; assay type: cell-based
Description: All treatments were performed in duplicate. […] Cells were incubated at 37° C. for 8 h. Caspase assay reagent (per 96-well plate) was prepared according to manufacturer's instructions (Homogeneous Caspases Assay, fluorometric, Roche) by combining 6.3 mL Incubation Buffer with 0.7 mL of Substrate Stock Solution. Caspase assay reagent (70 μL) was added to each well; the plate was gently shaken by hand for 15-20 seconds and incubated at 37° C. for 4 h.
Fluorescent emission was measured at 535 nm on a plate reader using the “homogeneous caspase” program (excitation Wavelength=490 nm, emission wavelength=535 nm). Duplicate wells for each treatment were averaged following background (no cells) subtraction (emission 535 nm value from all experimental emission 535 nm values) for each drug concentration.
DMSO treatment represented baseline caspase activation in the absence of drug. The percent changes in caspase activity were plotted on the y-axis for each drug treatment.

[4] = tested on: SK-MEL-2, A-375, Daoy, LN-229, OVCAR-3, HT-29, MCF-7 cell lines; assay type: cell-based
Description: as §1

Daoy (glioblastoma) [5] = tested on: Daoy (glioblastoma)
Description: as §2, §3

SK-MEL-2 (melanoma) [6] = tested on: SK-MEL-2 (melanoma)
Description: as §2, §3

## C=C(C)[C@@H]1CC[C@]2(COC(=O)CBr)CC[C@]3(C)[C@H](CC[C@@H]4[C@@]5(C)CC[C@H](O)C(C)(C)[C@@H]5CC[C@]43C)[C@@H]12 [Compound 13, ((1R,3aS,5aR,5bR,7aR,9S,11aR,11bR,13aR,13b R)-9-hydroxy-5a,5b,8,8,11a-pentamethyl-1-(prop-1-en-2-yl)icosahydro-1H-cyclopenta[a]chrysen-3a-yl)methyl 2-bromoacetate]
MCF-7 (breast carcinoma)
  IC50: 45 µg/mL (≈ 79.8 µM)
Daoy (glioblastoma) [1]
  IC50: 1.4 µg/mL (≈ 2.48 µM)
Daoy (glioblastoma) [1]; MTS assay, Daoy versus other cell lines
  selectivity of cytotoxicity for Daoy (in words): robust cytotoxic activity in Daoy but not in SK-MEL-2
SK-MEL-2 (melanoma) [2]
  IC50: 33 µg/mL (≈ 58.5 µM)
LN-229 (glioblastoma)
  IC50: 6 µg/mL (≈ 10.6 µM)
HT-29 (colon carcinoma)
  IC50: 10 µg/mL (≈ 17.7 µM)
[3]
  IC50: 6 µg/mL (≈ 10.6 µM)
A-375 (melanoma)
  IC50: 29 µg/mL (≈ 51.4 µM)
Daoy; Daoy, percent change versus DMSO
  caspase activation in Daoy: approx. 200%
Daoy; caspase assay, Daoy in preference to SK-MEL-2
  selectivity of apoptosis activation, Daoy versus SK-MEL-2 (in words): selectively activate apoptosis in Daoy in preference to SK-MEL-2

## C=C(C)[C@@H]1CC[C@]2(CNCCO)CC[C@]3(C)[C@H](CC[C@@H]4[C@@]5(C)CC[C@H](O)C(C)(C)[C@@H]5CC[C@]43C)[C@@H]12 [Compound 69, (1R,3aS,5aR,5bR,7aR,9S,11aR,11bR,13aR,13bR)-3a-((2-hydroxyethylamino)methyl)-5a,5b,8,8,11a-pentamethyl-1-(prop-1-en-2-yl)icosahydro-1H-cyclopenta[a]chrysen-9-ol]
MCF-7 (breast carcinoma)
  IC50: < 10 µg/mL
Daoy (glioblastoma) [1]
  IC50: < 2 µg/mL
SK-MEL-2 (melanoma) [2]
  IC50: 5 µg/mL (≈ 10.3 µM)
HT-29 (colon carcinoma)
  IC50: 2 µg/mL (≈ 4.12 µM)
[3]
  IC50: < 10 µg/mL
[4]
  cytotoxic potency across the cell line panel (in words): potent across the entire cell line panel
A-375 (melanoma)
  IC50: 4 µg/mL (≈ 8.23 µM)
Daoy (glioblastoma) [5]
  improvement in cytotoxicity relative to betulinic acid 1 in Daoy: greater than 5 fold
SK-MEL-2 (melanoma) [6]
  improvement in cytotoxicity relative to betulinic acid 1 in SK-MEL-2: greater than 5 fold
